# Reference: ChEMBL document CHEMBL1127954, “A new approach to synthesis of vinblastine analogs. Addition of organozinc reagents to the dihydropyridinium ion generated by fragmentative coupling to catharanthine and vindoline” (Bioorg Med Chem Lett, 1994)
# Values joined by “and” are separate entries in the source; they are usually repeats but may differ in a detail not shown here. Identical values can stand only once.
# Molecular target: Tubulin (Bos taurus, UniProt Q6B856+Q862L2+Q862F3)
# Assay: In vitro inhibitory activity against bovine brain tubulin assembly at a concentration of 3-3.5 mg/ml
# Type: functional
row,SMILES,IC50
1,CCC1CN2CCc3c([nH]c4ccccc34)[C@@](C(=O)OC)(c3cc4c(cc3OC)N(C)C3C45CCN4CC=CC(CC)(C45)C(OC(C)=O)[C@]3(O)C(=O)OC)CC(C2)[C@H]1CC (stereo not given in full),1300 nM and 1400 nM
2,CCC1CN2CCc3c([nH]c4ccccc34)[C@@](C(=O)OC)(c3cc4c(cc3OC)N(C)C3C45CCN4CC=CC(CC)(C45)C(OC(C)=O)[C@]3(O)C(=O)OC)CC(C2)[C@H]1C(C)(C)C (stereo not given in full),400 nM
3,CCC1CN2CCc3c([nH]c4ccccc34)[C@@](C(=O)OC)(c3cc4c(cc3OC)N(C)C3C45CCN4CC=CC(CC)(C45)C(OC(C)=O)[C@]3(O)C(=O)OC)CC(C2)[C@H]1c1ccccc1 (stereo not given in full),500 nM and 600 nM

# Second part, the compound after the results:
row,IC50,SMILES
1,21000 nM and 28000 nM,CCC1=CC2CN(CCc3c([nH]c4ccccc34)[C@@](C(=O)OC)(c3cc4c(cc3OC)N(C)C3C45CCN4CC=CC(CC)(C45)C(OC(C)=O)[C@]3(O)C(=O)OC)C2)[C@@H]1C#Cc1ccccc1 (stereo not given in full)
2,1400 nM and 1600 nM,CCC1=CC2CN(CCc3c([nH]c4ccccc34)[C@@](C(=O)OC)(c3cc4c(cc3OC)N(C)C3C45CCN4CC=CC(CC)(C45)C(OC(C)=O)[C@]3(O)C(=O)OC)C2)[C@@H]1c1ccccc1 (stereo not given in full)
